Like-named read-outs stand apart in the source and are kept apart here. Starred links: 1 amine or outer side, 2 acyl side, 3 side chain; linkers in the order of their positions; H or OH if unused. Positions of bridges follow the written chain, without caps; N, C: chain ends. Non-standard residues stand in square brackets, D forms with d. Residues, ends and D or L forms follow the SMILES beside them. Groups on a side chain read outwards from the residue. *: point of attachment. Ala(1-CH2CO2H-4-piperidyl) = N[C@@H](CC1CCN(CC(=O)O)CC1)C(=O)O; X13 = O=C(O)c1ccc(-n2cc(C[C@H](N[*:1])C(=O)[*:2])c3ccccc32)cc1; Phe(3-OCH2COOH) = N[C@@H](Cc1cccc(OCC(=O)O)c1)C(=O)O; NMePhe(4-CH2NH2) = CN[C@@H](Cc1ccc(CN)cc1)C(=O)O; Phe(4-COOH) = N[C@@H](Cc1ccc(C(=O)O)cc1)C(=O)O; Trp(7-aza) = N[C@@H](Cc1c[nH]c2ncccc12)C(=O)O; Piperazinyl(4-CH2COOH) = O=C(O)CN1CCN(*)CC1; 3Pal(6-NH2) = Nc1ccc(C[C@H](N)C(=O)O)cn1; 1Nal = N[C@@H](Cc1cccc2ccccc12)C(=O)O; Gly(decyl) = CCCCCCCCCC[C@H](N)C(=O)O; Gly(N(CH2)3COOH) = O=C(O)CCCNCC(=O)O; X1 = CCCCCCC[C@H](N[*:1])C(=O)[*:2]; NMeF = CN[C@@H](Cc1ccccc1)C(=O)O; 4Pal = N[C@@H](Cc1ccncc1)C(=O)O; NMeE = CN[C@@H](CCC(=O)O)C(=O)O; Cha = N[C@@H](CC1CCCCC1)C(=O)O; NMeA = CN[C@@H](C)C(=O)O; Dap = NC[C@H](N)C(=O)O; CO = O=C([*:1])[*:2]; Sar = CNCC(=O)O
Experiments:
[1] = molecular target: T1, Myostatin (Homo sapiens, UniProt O14793); test: HepG2 reporter gene assay, Evaluation Procedure (2): 2-concentrations assay, myostatin inhibition; format: cell-based; conditions: HepG2
T1 construct: active myostatin (also called mature myostatin) is a homodimer consisting of two C-terminal growth factor domains; purchased R&D systems 788-G8/CF
T1 sequence (O14793 267-375): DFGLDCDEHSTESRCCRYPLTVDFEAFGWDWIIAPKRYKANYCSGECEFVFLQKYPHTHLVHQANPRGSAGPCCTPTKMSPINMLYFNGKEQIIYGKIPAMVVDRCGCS
Summary of the method: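 HepG2 cells (HB-8065, ATCC) carrying the transfected pGL3(CAGA)12-luc reporter plasmid were treated with myostatin (788-G8/CF, R&D systems) at a final concentration of 10 ng/mL plus peptide and incubated at 37°C, 5% CO2 for 20 to 24 hours. Luminescence was read after adding PBS mixed 1:1 with One-Glo substrate, and inhibition rate was calculated.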

[2] = molecular target: T2, GDF-11 (Homo sapiens, UniProt O95390); test: HepG2 reporter gene assay, Evaluation Procedure (2): 2-concentrations assay, GDF-11 inhibition; format: cell-based; conditions: for inhibition: read-out: inhibition rate (GDF-11 inhibition assay); for inhibition at 0.03 µM: HepG2, peptide 30nM, read-out: GDF11 Inhibition 30nM; for inhibition at 0.03 µM / inhibition at 0.1 µM: GDF-11 10 ng/mL; for inhibition at 0.1 µM: HepG2, peptide 100nM, read-out: GDF11 Inhibition 100nM
T2 construct: purchased R&D systems 1958-GD-G8/CF
T2 sequence (O95390 299-407): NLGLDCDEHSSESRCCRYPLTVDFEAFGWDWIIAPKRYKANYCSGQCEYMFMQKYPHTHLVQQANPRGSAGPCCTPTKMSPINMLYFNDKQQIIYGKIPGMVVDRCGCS
Summary of the method: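 HepG2 cells carrying the transfected pGL3(CAGA)12-luc reporter, a pGL3 vector with luciferase placed downstream of 12 CAGA repeats, were stimulated with GDF-11 at a final 10 ng/mL together with test peptide. Blank wells received no GDF-11 and no peptide. Plates were incubated 20 to 24 hours at 37°C with 5% CO2. Luminescence from One-Glo substrate was read to calculate percent inhibition.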

[3] = peptide 30nM, Myostatin 10 ng/mL, read-out: Myostatin Inhibition 30nM
[4] = peptide 100nM, Myostatin 10 ng/mL, read-out: Myostatin Inhibition 100nM

With CCCCCCC[C@@H]1NC(=O)[C@@H]2Cc3ccc(cc3)CNC(=O)CC[C@@H](C(=O)N[C@@H](C)C(=O)N[C@@H](Cc3cn(-c4ccc(C(=O)O)cc4)c4ccccc34)C(=O)N[C@@H](Cc3ccc(O)cc3)C(=O)N(C)[C@@H](Cc3ccccc3)C(=O)N[C@@H]([C@@H](C)CC)C(=O)N3CCC[C@@H]3C(=O)N[C@@H](Cc3cccc(OCC(=O)O)c3)C(=O)N[C@@H](Cc3ccc(C(=O)O)cc3)C(=O)N[C@@H](CCCNC(=N)N)C(=O)N2C)N(C)C(=O)CSC[C@H](C(=O)O)NC(=O)[C@H](Cc2ccccc2)N(C)C(=O)[C@H](C)N(C)C1=O [Myostatin_99_v423] ({CH2CO}-[NMeE]A[X13]Y[NMeF]I[dP][Phe(3-OCH2COOH)][Phe(4-COOH)]R[NMePhe(4-CH2NH2)][X1][NMeA][NMeF][dC]-OH; lactam 1-11; thioether N-15) the inhibition at 0.1 µM ([1]; Table 7-3/7-4, myostatin 10 ng/mL, peptide at the higher of the 2 concentrations, read-out: inhibition rate (myostatin inhibition assay)) was 100%, the inhibition at 0.03 µM ([1]; Table 7-3/7-4, myostatin 10 ng/mL, peptide at the lower of the 2 concentrations, read-out: inhibition rate (myostatin inhibition assay)) was 100% and the inhibition ([2]; HepG2, first GDF-11 column of Table 7-3/7-4, GDF-11 10 ng/mL, peptide at the lower of the 2 concentrations) was 0%. For the same compound, the inhibition ([2]; HepG2, second GDF-11 column of Table 7-3/7-4, GDF-11 10 ng/mL, peptide at the higher of the 2 concentrations) was 0%.
CC[C@H](C)[C@@H]1NC(=O)[C@H](Cc2ccccc2)N(C)C(=O)[C@H](Cc2ccc(O)cc2)NC(=O)[C@H](Cc2c[nH]c3ncccc23)NC(=O)[C@H](C)NC(=O)[C@H](C)NC(=O)CSC[C@H](C(=O)NCC(=O)N[C@H](CCC(=O)O)C(=O)NCC(=O)N[C@H](CCCCN)C(=O)O)NC(=O)[C@H](Cc2ccccc2)N(C)C(=O)[C@H](C)N(C)C(=O)[C@H](CC(C)C)NC(=O)[C@H](Cc2ccccc2)N(C)C(=O)[C@H](CCCNC(=N)N)NC(=O)[C@H](Cc2ccc(C(=O)O)cc2)NC(=O)[C@H](Cc2ccncc2)NC(=O)CN(C)C1=O [Myostatin_99_v29] ({CH2CO}-AA[Trp(7-aza)]Y[NMeF]I[Sar][4Pal][Phe(4-COOH)]R[NMeF]L[NMeA][NMeF][dC]G[dE]G[dK]-OH; thioether N-15) showed an inhibition at 0.03 µM [1, 3] of 57%, an inhibition at 0.1 µM [1, 4] of 81% and an inhibition at 0.03 µM [2] of 0%. It also gave an inhibition at 0.1 µM [2] of 0%.
CC[C@H](C)[C@@H]1NC(=O)[C@H](Cc2ccccc2)N(C)C(=O)[C@H](Cc2ccc(O)cc2)NC(=O)[C@H](Cc2c[nH]c3ccccc23)NC(=O)[C@H](CN)NC(=O)[C@H](C)NC(=O)CSC[C@@H](C(N)=O)NC(=O)[C@H](Cc2ccccc2)N(C)C(=O)[C@H](C)N(C)C(=O)[C@H](CC(C)C)NC(=O)[C@H](Cc2ccccc2)N(C)C(=O)[C@H](CCCNC(=N)N)NC(=O)[C@H](Cc2ccc(O)cc2)NC(=O)[C@H](Cc2ccc(O)cc2)NC(=O)CN(C)C1=O [Myostatin_000099_02Dap] ({CH2CO}-A[Dap]WY[NMeF]I[Sar]YYR[NMeF]L[NMeA][NMeF]C-NH2; thioether N-15) was tested, and the inhibition at 0.03 µM [1, 3] was 50%, the inhibition at 0.1 µM [1, 4] was 82% and the inhibition at 0.03 µM [2] was 0%. The inhibition at 0.1 µM [2] was 2%.
Work on CCCCCCC[C@@H]1NC(=O)[C@H](Cc2ccccc2)N(C)C(=O)[C@H](CCCNC(=N)N)NC(=O)[C@H](Cc2ccc(C(=O)O)cc2)NC(=O)[C@H](CC2CCN(CC(=O)O)CC2)NC(=O)CN(C)C(=O)[C@H]([C@@H](C)CC)NC(=O)[C@H](Cc2ccccc2)N(C)C(=O)[C@H](Cc2ccc(O)cc2)NC(=O)[C@H](Cc2c[nH]c3ccccc23)NC(=O)[C@H](C)NC(=O)CN(CCCC(=O)O)C(=O)CSC[C@H](C(=O)O)NC(=O)[C@H](Cc2ccccc2)N(C)C(=O)[C@H](C)N(C)C1=O [Myostatin_99_v233] ({CH2CO}-[Gly(N(CH2)3COOH)]AWY[NMeF]I[Sar][Ala(1-CH2CO2H-4-piperidyl)][Phe(4-COOH)]R[NMeF][X1][NMeA][NMeF][dC]-OH; thioether N-15) yielded an inhibition at 0.03 µM [1, 3] of 50%, an inhibition at 0.1 µM [1, 4] of 85% and an inhibition at 0.03 µM [2] of 8%. For the same compound, the inhibition at 0.1 µM [2] was 0%.
CCCCCCC[C@@H]1NC(=O)[C@H](Cc2ccccc2)N(C)C(=O)[C@H](CCCNC(=N)N)NC(=O)[C@H](Cc2ccc(C(=O)O)cc2)NC(=O)[C@H](Cc2ccncc2)NC(=O)CN(C)C(=O)[C@H]([C@@H](C)CC)NC(=O)[C@H](Cc2ccccc2)N(C)C(=O)[C@H](Cc2ccc(O)cc2)NC(=O)[C@H](Cc2c[nH]c3ccccc23)NC(=O)[C@H](C)NC(=O)[C@H](CC2CCN(CC(=O)O)CC2)NC(=O)CSC[C@H](C(=O)O)NC(=O)[C@H](Cc2ccccc2)N(C)C(=O)[C@H](C)N(C)C1=O [Myostatin_99_v232] ({CH2CO}-[Ala(1-CH2CO2H-4-piperidyl)]AWY[NMeF]I[Sar][4Pal][Phe(4-COOH)]R[NMeF][X1][NMeA][NMeF][dC]-OH; thioether N-15) was tested, and the inhibition at 0.03 µM [1, 3] was 58%, the inhibition at 0.1 µM [1, 4] was 84% and the inhibition at 0.03 µM [2] was 0%. It also gave an inhibition at 0.1 µM [2] of 0%.
Work on CC[C@H](C)[C@@H]1NC(=O)[C@H](Cc2ccccc2)N(C)C(=O)[C@H](Cc2ccc(O)cc2)NC(=O)[C@H](Cc2c[nH]c3ccccc23)NC(=O)[C@H](CN)NC(=O)[C@H](C)NC(=O)CSC[C@H](C(=O)N[C@@H](CN)C(=O)N[C@@H](CN)C(N)=O)NC(=O)[C@H](Cc2ccccc2)N(C)C(=O)[C@H](C)N(C)C(=O)[C@H](CC(C)C)NC(=O)[C@H](Cc2ccccc2)N(C)C(=O)[C@H](CCCNC(=N)N)NC(=O)[C@H](Cc2ccc(O)cc2)NC(=O)[C@H](Cc2ccc(O)cc2)NC(=O)CN(C)C1=O [Myostatin_99_Variant_10] ({CH2CO}-A[Dap]WY[NMeF]I[Sar]YYR[NMeF]L[NMeA][NMeF][dC][Dap][Dap]-NH2; thioether N-15) yielded an inhibition at 0.03 µM [1, 3] of 60%, an inhibition at 0.1 µM [1, 4] of 89% and an inhibition at 0.03 µM [2] of 11%. The inhibition at 0.1 µM [2] was 29%.
CC[C@H](C)[C@@H]1NC(=O)[C@H](Cc2ccccc2)N(C)C(=O)[C@H](Cc2ccc(N)nc2)NC(=O)[C@H](Cc2c[nH]c3ccccc23)NC(=O)[C@H](C)NC(=O)CN(CCCC(=O)O)C(=O)CSC[C@H](C(N)=O)NC(=O)[C@H](Cc2ccccc2)N(C)C(=O)[C@H](C)N(C)C(=O)[C@H](CC(C)C)NC(=O)[C@H](Cc2ccccc2)N(C)C(=O)[C@H](CCCNC(=N)N)NC(=O)[C@H](Cc2ccc(C(=O)O)cc2)NC(=O)[C@H](Cc2ccncc2)NC(=O)CN(C)C1=O [Myostatin_99_Variant_25] ({CH2CO}-[Gly(N(CH2)3COOH)]AW[3Pal(6-NH2)][NMeF]I[Sar][4Pal][Phe(4-COOH)]R[NMeF]L[NMeA][NMeF][dC]-NH2; thioether N-15) showed an inhibition at 0.03 µM [1, 3] of 20%, an inhibition at 0.1 µM [1, 4] of 50% and an inhibition at 0.03 µM [2] of 0%. For the same compound, the inhibition at 0.1 µM [2] was 0%.
Compound CCCCCCCCCC[C@@H]1NC(=O)[C@H](CC2CCCCC2)NC(=O)[C@H](CCCNC(=N)N)NC(=O)[C@H](Cc2ccc(C(=O)O)cc2)NC(=O)[C@H](CCCCNC(=O)N2CCN(CC(=O)O)CC2)NC(=O)CN(C)C(=O)[C@H]([C@@H](C)CC)NC(=O)[C@H](Cc2ccccc2)N(C)C(=O)[C@H](Cc2ccc(O)cc2)NC(=O)[C@H](Cc2c[nH]c3ccccc23)NC(=O)[C@H](C)NC(=O)[C@H](CCCCNC(=O)N2CCN(CC(=O)O)CC2)NC(=O)CSC[C@H](C(=O)N2CCN(CC(=O)O)CC2)NC(=O)[C@H](Cc2ccccc2)N(C)C(=O)[C@H](C)N(C)C1=O [Myostatin_99_v267] ({CH2CO}-K([CO-Piperazinyl(4-CH2COOH)])AWY[NMeF]I[Sar]K([CO-Piperazinyl(4-CH2COOH)])[Phe(4-COOH)]R[Cha][Gly(decyl)][NMeA][NMeF][dC]-{Piperazinyl(4-CH2COOH)}; thioether N-15) has an inhibition at 0.03 µM [1, 3] of 100%, an inhibition at 0.1 µM [1, 4] of 100% and an inhibition at 0.03 µM [2] of 24%. The inhibition at 0.1 µM [2] was 64%.
CCCCCCC[C@@H]1NC(=O)[C@H](Cc2ccccc2)N(C)C(=O)[C@H](CCCNC(=N)N)NC(=O)[C@H](Cc2ccc(C(=O)O)cc2)NC(=O)[C@H](Cc2cccc(OCC(=O)O)c2)NC(=O)CN(C)C(=O)[C@H]([C@@H](C)CC)NC(=O)[C@H](Cc2ccccc2)N(C)C(=O)[C@H](Cc2cccc3ccccc23)NC(=O)[C@H](Cc2c[nH]c3ccccc23)NC(=O)[C@H](C)NC(=O)[C@H](C)NC(=O)CSC[C@H](C(=O)N2CCN(CC(=O)O)CC2)NC(=O)[C@H](Cc2ccccc2)N(C)C(=O)[C@H](C)N(C)C1=O [Myostatin_99_v300] ({CH2CO}-AAW[1Nal][NMeF]I[Sar][Phe(3-OCH2COOH)][Phe(4-COOH)]R[NMeF][X1][NMeA][NMeF][dC]-{Piperazinyl(4-CH2COOH)}; thioether N-15) was tested, and the inhibition at 0.03 µM [1, 3] was 81%, the inhibition at 0.1 µM [1, 4] was 97% and the inhibition at 0.03 µM [2] was 0%. The inhibition at 0.1 µM [2] was 0%.

Source: patent EP4786487A1, “PEPTIDE” (Peptidream Inc, priority 2023, dated 2025)
